Test [1] concerns Thiobacillus ferrooxidans. In words: Fe^2+ oxidation by resting cells (oxygen consumption rate, Oxygraph). The test is classed as cell-based. The following applies: for inhibition of Fe^2+ oxidation: pH 3. The method, then: For the resting cell experiments, cells from large scale growth were filtered through Whatman™ No. 1 filter paper under suction before centrifugation at 8000× g. The cells were washed in 0.1 M β-alanine-H2SO4 (pH 2.3) and suspended in the same buffer to a concentration of 50 mg wet cells per ml.
The rate of ferrous iron and sulfur oxidation by the resting cells was determined by the oxygen consumption rate (nmol O2/min) in a Gilson™ Oxygraph with a Clark™ oxygen electrode at 25° C. The reaction mixture in a total volume of 1.2 ml contained 10-100 μl cell suspension, 0.5 μmol FeSO4 or 0.1 ml elemental sulfur suspension (32 mg in 500 ppm Tween-80™) and 0.1 M β-alanine-H2SO4 at pH 3.0 (standard condition) or varying inhibitory concentrations of salts at pH 3.0, as described below. Specifically, the effect of standard biological oxidation inhibitors, sodium azide and sodium cyanide in 0.1 M β-alanine-H2SO4 at pH 3.0 was studied.

The subject of test [2] is Thiobacillus ferrooxidans. Kind of test: S^0 oxidation by resting cells (oxygen consumption rate, Oxygraph). Type of test: cell-based.
Test [3] relates to bacterial leaching of a complex sulfide ore. In words: Bacterial leaching of a complex sulfide ore from the Flin Flon mine. Type of test: cell-based, Thiobacillus thiooxidans SM-7. The method, then: In this embodiment of the invention, bacterial strains Thiobacillus ferrooxidans SM-4 and Thiobacillus thiooxidans SM-6 (FIGS. 1, 3 and 4 and Table 2) or SM-7 (Table 5) were used. Specifically, T. ferrooxidans was grown on Fe^2+ or S^0 while T. thiooxidans was grown only on sulfur. HP medium, described in Suzuki et al, 1990, Appl Environ Microbiol 56:1620-1626, consisting of: 0.4 g (NH4)2SO4, 0.1 g K2HPO4, 0.4 g MgSO4.7H2O per liter, adjusted to pH 2.3 with H2SO4 was used for growth of bacteria on Fe^2+, for growth in a Micro-oxymax™ respirometer (both Fe^2+ and S^0 growth), and for mineral leaching experiments, as described below. For growth on Fe^2+, 33.3 g FeSO4.7H2O per liter (pH 2.3, filter-sterilized) was added to the above-described HP medium. Cultures were grown in shake flasks (100 ml) with 10% inoculum (v/v) in 250 ml Erlenmeyer™ flasks at 25° C. at 120 rpm for 24 hours. It is of note that for large scale growth, medium volume and flask size were increased.
. In fact, the highest level of Cu leaching using this ore is nearly five times greater than previously reported values in the absence of additional anions (Lizama and Suzuki, 1988, Biotechnol Bioeng 32: 110-116). […] That is, copper and zinc can be recovered from a complex ore without the need for separation simply by replacing the media following completion of copper leaching because of this lag time.

The test system of test [4] is T. thiooxidans. The protocol: (§1) Growth inhibition studies were carried out in a Micro-oxymax™ respirometer at Cominco Research in Trail, British Columbia, wherein the O2 and CO2 consumption (at 52 minute intervals) of cultures at 26° C. were monitored over time (45-50 hours). Each flask contained a total volume of 100 ml, comprised of 5 ml inoculum culture plus 95 ml HP medium with varying concentrations of inhibitors plus Fe^2+ or S^0 as growth substrate (33.3 g FeSO4.7H2O or 25 g sulfur per liter). In the S^0 medium, HP medium was supplemented with 18 mg FeSO4.7H2O per liter. A growth curve was generated from the monitored O2 and CO2 consumption rates over time, as described below.

The test system of test [5] is T. ferrooxidans. The protocol:
as §1

In test [6] the test system is T. thiooxidans. Kind of test: Bacterial leaching of flotation tailings with T. thiooxidans. The test is classed as cell-based, Thiobacillus thiooxidans. The protocol:
(§2) Bacterial leaching was performed in shake flask experiments with 250 ml Erlenmeyer™ flasks containing 95 ml of HP medium with and without inhibitors unless otherwise specified, 4 ml of inoculum (Fe^2+-grown T. ferrooxidans, S^0-grown T. thiooxidans or both) and 5 g of floatation tailings supplied by Cominco Research were used, as described below. The flasks were grown at 26° C. on a rotary shaker at 150 rpm for 14 days. At various time intervals, 5 ml samples were taken to determine the concentrations of dissolved zinc and iron in the leachate as well as the percentage of zinc and iron remaining in the precipitate (after filtration of the leachate).

In test [7] the test system is bioleaching of chalcopyrite (CuFeS2) and sphalerite mixture. The test is classed as cell-based. The method, then:
as §2

Test [8] deals with T. ferrooxidans. The test is classed as cell-based, Thiobacillus ferrooxidans. The protocol: as §2
For test [9], the system named is T. ferrooxidans and T. thiooxidans. The protocol: as §2
[10] abbreviates: Acidithiobacillus ferrooxidans, pH 3, read-out: inhibition of Fe^2+ oxidation.
Setting [11] is: Acidithiobacillus ferrooxidans, pH 3, read-out: inhibition of S^0 oxidation.

“And” between values parts separate entries of the source, which are not always exact repeats. Equal entries are not always repeated.

As to `[N-]=[N+]=[N-]` [sodium azide, reference compound], in test [1] (setting [10]), the inhibition (as a rule, the share of the control response that was lost under treatment) at 10 µM was determined as 90% and the inhibition at 50 µM was determined as 95%. For the same molecule, in test [2] (setting [11]), the inhibition at 10 µM worked out at 35% and the inhibition at 50 µM is 90%.

On to potassium chloride, for which the “inhibition of Fe^2+ oxidation” value in test [1] was 30% and 40%. Moreover, in [3], the Cu leaching entry is on record as “stimulation” and the Zn leaching entry is “stimulation”. Also, the “S^0 oxidation during growth” value with T. thiooxidans [4] is reported as “stimulated”. The “Fe^2+ oxidation during growth” value in the test with T. ferrooxidans [5] is recorded as “inhibited”. Besides, in test [2] (pH 3), the “inhibition of S^0 oxidation” value is on record as 10%. Further, the Fe leaching entry in the test on T. thiooxidans [6] is on record as “reduced Fe leaching at high concentrations, albeit to a much smaller degree”. In test [7], the “extraction of Zn” value was “stimulated”.

On to potassium nitrate, for which the “inhibition of Fe^2+ oxidation” value in test [1] is 90% and 100%. For the same molecule, in the test with T. ferrooxidans [8], the Fe leaching entry was “reduced the Fe leaching similar to phosphate” and the Zn leaching result is “considerably inhibited”. Besides, the Fe leaching result with T. thiooxidans [6] is recorded as “reduced Fe leaching at high concentrations, albeit to a much smaller degree”.

In the case of potassium phosphate, in [1], the “inhibition of Fe^2+ oxidation” value came to 60%. In [3], the Cu leaching result is reported as “stimulation” and the Zn leaching result is reported as “stimulation”. Moreover, the “S^0 oxidation during growth” value in the test on T. thiooxidans [4] was “stimulated”. For the same molecule, the “Fe^2+ oxidation during growth” value in the test with T. ferrooxidans [5] is on record as “inhibited”. For the same molecule, the “reduction in Zn leaching” value in the test with T. ferrooxidans [8] worked out at 50%. For the same molecule, in [9], the Fe leaching entry was “no Fe leaching” and the “inhibition of Fe leaching relative to Zn leaching” value is listed as “most effective inhibitor of Fe leaching without inhibiting Zn leaching extensively”. The Fe leaching result with T. thiooxidans [6] is listed as “strongly inhibited”. Besides, in test [7], the “extraction of Zn” value is “slightly reduced” and the iron oxidation result was “reduced”.

Source of the values: patent US20020012620A1, “BACTERIAL LEACHING OF COPPER AND ZINC WITHOUT IRON LEACHING” (priority 1998, published 2002).
